Data on four molecules can be found in paper PMC10610095 (Pharmaceuticals, 2023).

Series [1] deals with DP1. Also noted: method as in PMID 33800801. The following applies: cited from earlier work.
Series [2] concerns TP. Details: method as in PMID 33800801. The following applies: cited from earlier work.
The target of series [3] is T1, GPR44 (1.1 B4 tumor) (Homo sapiens, UniProt Q9Y5Y4).
T1 construct: 1.1 B4 cells were implanted into NOD/SCID mice to generate GPR44-expressing mouse models; endogenous in cells; host or cells: human 1.1 B4 hybrid cell line (human pancreatic islet culture x PANC-1), subcutaneous xenograft in NOD/SCID mice
T1 sequence (Q9Y5Y4 1-395): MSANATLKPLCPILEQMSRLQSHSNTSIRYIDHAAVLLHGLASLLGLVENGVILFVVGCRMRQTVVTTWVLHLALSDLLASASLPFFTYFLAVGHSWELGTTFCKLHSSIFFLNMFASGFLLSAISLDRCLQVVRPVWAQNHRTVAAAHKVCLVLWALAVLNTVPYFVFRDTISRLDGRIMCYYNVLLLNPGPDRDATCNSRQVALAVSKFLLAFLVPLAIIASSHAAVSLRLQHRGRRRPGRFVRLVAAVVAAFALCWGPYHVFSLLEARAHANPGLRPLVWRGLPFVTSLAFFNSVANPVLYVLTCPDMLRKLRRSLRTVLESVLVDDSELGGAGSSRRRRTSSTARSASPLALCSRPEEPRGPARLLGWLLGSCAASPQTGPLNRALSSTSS
Kind of series: Biodistribution in NOD/SCID mice implanted with 1.1 B4 cells, with and without blocking agent. It counts as in vivo. The following applies: 30 min p.i.; for pancreas uptake: 1.1 B4 model; for tumor uptake: 1.1 B4 tumor. The method, then:
NOD/SCID mice (n = 24) were subcutaneously injected with 1.1 B4 cells above their shoulders. Tumors were established 17–21 d after injection.
Under general anesthesia, NOD/SCID mice were administered doses of tracer (~3.7 MBq) intravenously through the tail vein, then the animals were euthanized at 30 min post-injection. Organs/tissues/tumors of interest were harvested, weighed, and gamma-counted. Radioactive uptakes were calculated and reported as percentage of injected dose per gram (% ID/g) for each organ/tissue/tumor.

Series [4] is described as follows: Biodistribution in healthy control NOD/SCID mice. It is filed as in vivo. The following applies: i.v. The method, then:
The uptake of the tracer in the kidney was ~4.00 ± 0.80% ID/g at 30 min p.i, 2.11 ± 1.06% ID/g at 60 min p.i., and 1.33 ± 0.47% ID/g at 90 min p.i. […] Low tracer uptake levels were common in the majority of organs, excluding excretion organs such as the liver. […] Of the time points, 30 min post-injection was chosen to evaluate the next specific GPR44 mouse models.
The biodistribution of [^18F]TM30089 was investigated in healthy NOD/SCID mice at various time points post-injection. Three time points (30 min, 60 min, or 90 min post-injection) and one blocking time point (30 min post-injection) were selected in the biodistribution (n = 4/each group). […] Under general anesthesia, NOD/SCID mice were administered doses of tracer (~3.7 MBq) intravenously through the tail vein. At the above-specified time points, the animals were euthanized, and the organs/tissues of interest were harvested. Organs/tissues were weighed, and the gamma was counted. Radioactive uptakes were calculated and reported as percentage of injected dose per gram (% ID/g) for each organ.

Series [5] deals with T2, GPR44 (transplanted human islets) (Homo sapiens, UniProt Q9Y5Y4).
T2 construct: Only transplanted human islets were targeted by the GPR44 radio-probes; tissue Southern California Islet Cell Resources Center; host or cells: human pancreatic islets from healthy adult donors, 500 IEQ transplanted into the renal capsule of NOD/SCID mice
T2 sequence (Q9Y5Y4 1-395): T1 sequence (Q9Y5Y4 1-395)
The series is described as follows: Biodistribution in NOD/SCID mice with transplanted human islets in a renal capsule. It is filed as in vivo. The following applies: 500 IEQ human islets, 30 min p.i., two individual mice. The procedure: A procedure similar to that of the above murine biodistribution was performed in this biodistribution study. Mice were euthanized at 30 min post-injection, and the organs/tissues of interest were collected.
Human islets with diameters of less than 250 µm were used for transplantation. A total of 500 IEQ human islets were transplanted into the renal capsule of NOD/SCID mice (n = 5) using a well-established standard procedure.
Under general anesthesia, NOD/SCID mice were administered doses of tracer (~3.7 MBq) intravenously through the tail vein, then the animals were euthanized at 30 min post-injection. Organs/tissues/islets of interest were harvested, weighed, and gamma-counted. Radioactive uptakes were calculated and reported as percentage of injected dose per gram (% ID/g) for each organ/tissue/islet.

Series [6] relates to GPR44 vs thromboxane receptor (TP). Also noted: method as in PMID 15179446. The following applies: cited from earlier work.
In series [7] the test system is GPR44. Also noted: method as in PMID 30557325. The following applies: clinical trial, orally administered; cited from earlier work.

Where “and” joins values, the source holds several entries; their conditions need not be identical. Equal entries are not always repeated.

On to `CN(C1CCc2c(c3ccccc3n2CC(=O)O)C1)S(=O)(=O)c1ccc(F)cc1` (stereo not shown) [TM-30089, {3-[(4-fluoro-benzenesulfonyl)methyl-amino]-1,2,3,4-tetrahydro-carbazol-9-yl}acetic acid], for which the “off-target binding to DP1” value in series [1] was “negligible off-target binding”. Further, the “off-target binding to TP” value in series [2] is “negligible off-target binding”.
On to `CN(C1CCc2c(c3ccccc3n2CC(=O)O)C1)S(=O)(=O)c1ccc([18F])cc1` (stereo not shown) [[^18F]TM-30089], for which the figures for the pancreas uptake in series [3] (blocked group (cold TM30089 1 mg/kg)) and in series [3] (non-blocked group) were 0.26 ± 0.05 % ID/g and 0.38 ± 0.04 % ID/g, respectively. Moreover, the tumor uptake in series [3] (blocked with cold TM30089 (1 mg/kg)) came to 0.24 ± 0.02 % ID/g; in series [3] (non-blocked) it was 27.81 ± 1.71 % ID/g. In addition, in series [4], the “uptake in other organs (heart, lung, pancreas, spleen)” value is reported as “low uptakes”. Also, the values for the kidney uptake in series [4] (30 min p.i.), in series [4] (60 min p.i.) and in series [4] (90 min p.i.) were ~ 4.00 ± 0.80 % ID/g, 2.11 ± 1.06 % ID/g and 1.33 ± 0.47 % ID/g, respectively. For the same molecule, the liver uptake in series [4] (30 min p.i.) is listed as 15.31 ± 0.16 % ID/g; in series [4] (60 min p.i.), 8.76 ± 1.60 % ID/g; in series [4] (90 min p.i.) it was 6.62 ± 0.57 % ID/g. Moreover, the figures for the small intestine uptake in series [4] (30 min p.i.), in series [4] (60 min p.i.) and in series [4] (90 min p.i.) were 10.67 ± 2.13 % ID/g, 10.14 ± 0.47 % ID/g and 9.90 ± 0.26 % ID/g, respectively. The “uptake in human islets transplanted into a kidney capsule” value in series [5] was 10.87 % ID/g and 6.21 % ID/g.
On to `O=C(O)CCn1c2c(c3ccccc31)C[C@H](NS(=O)(=O)c1ccc(F)cc1)CC2` [ramatroban], for which the “selectivity for GPR44 than for TP (times less)” value in series [6] is “approximately 16 times”.
On to `CC(=O)Nc1cccc2c1c(Sc1ccc(Cl)cc1)c(C)n2CC(=O)O` [AZD1981], for which the “improvement in insulin secretion” value in series [7] was “did not show a significant improvement in insulin secretion”.
